# Reference: US9469650B2, “Melampomagnolide B derivatives” (BOARD OF TRUSTEES OF THE UNIVERSITY OF ARKANSAS, priority 2013, dated 2016)
# Tests used:
# [1] = tested on: MALME-3M; experiment: panel of 60 human tumor cell lines, growth inhibition (Melanoma); details: MALME-3M
# [2] = tested on: UACC-257
# [3] = tested on: U251
# [4] = tested on: A549/ATCC
# [5] = tested on: SF-295
# [6] = tested on: OVCAR-5
# [7] = tested on: HS 578T
# [8] = tested on: SNB-19
# [9] = tested on: K-562
# [10] = tested on: HT29
# [11] = tested on: NCI-H460
# [12] = tested on: SK-MEL-2
# [13] = tested on: MCF7
# [14] = tested on: SW-620
# [15] = tested on: SK-OV-3
# [16] = tested on: RXF 393
# [17] = tested on: CCRF-CEM
# [18] = tested on: SN12C
# [19] = tested on: T-47D
# [20] = tested on: PC-3
# [21] = tested on: UACC-62
# [22] = tested on: DU-145
# [23] = tested on: RPMI-8226; experiment: panel of 60 human tumor cell lines, growth inhibition (Leukemia); details: RPMI-8226
# [24] = tested on: HCC-2998
# [25] = tested on: BT-549
# [26] = tested on: MDA-MB-231/ATCC
# [27] = tested on: NCI-H226
# [28] = tested on: A498
# [29] = tested on: HCT-15
# [30] = tested on: 786-0
# [31] = tested on: IGROV1
# [32] = tested on: SNB-75
# [33] = tested on: NCI-H23
# [34] = tested on: HOP-92
# [35] = tested on: UO-31
# [36] = tested on: MOLT-4
# [37] = tested on: CAKI-1
# [38] = tested on: M14
# [39] = tested on: NCI-H322M
# [40] = tested on: LOX IMVI
# [41] = tested on: OVCAR-8
# [42] = tested on: NCI-H522
# [43] = tested on: SF-268
# [44] = tested on: NCI/ADR-RES
# [45] = tested on: SK-MEL-28
smiles,measurement,setting,value
C=C1C(=O)O[C@H]2[C@H]1CC/C(COC(=O)NCCO)=C\CC[C@@]1(C)O[C@@H]21 [JVM 2-50],Percent Growth,[1]; Log10 Concentration −4.0,−67%
same,Percent Growth,[1]; Log10 Concentration −5.0,58%
same,Percent Growth,[1]; Log10 Concentration −6.0,110%
same,Percent Growth,[1]; Log10 Concentration −7.0,111%
same,Percent Growth,[1]; Log10 Concentration −8.0,107%
same,GI50,[1]; NCI five dose,11.5 µM
same,TGI,[1]; NCI five dose,2.91E−5
same,CC50,[2],63.5 µM
same,CC50,[3],> 100 µM
same,CC50,[4],> 100 µM
same,CC50,[5],> 100 µM
same,CC50,[6],92.4 µM
same,CC50,[7],> 100 µM
same,CC50,[8],> 100 µM
same,CC50,[9],> 100 µM
same,CC50,[10],≥ 100 µM
same,CC50,[11],> 100 µM
same,CC50,[12],94.4 µM
same,CC50,[13],75.5 µM
same,CC50,[14],74 µM
same,CC50,[15],> 100 µM
same,CC50,[16],62.5 µM
same,CC50,[17],> 100 µM
same,CC50,[18],> 100 µM
same,CC50,[19],87.4 µM
same,CC50,[20],> 100 µM
same,CC50,[21],58.3 µM
same,CC50,[22],52.8 µM
same,Percent Growth,[23]; Log10 Concentration −4.0,−49%
same,Percent Growth,[23]; Log10 Concentration −5.0,33%
same,Percent Growth,[23]; Log10 Concentration −6.0,93%
same,Percent Growth,[23]; Log10 Concentration −7.0,97%
same,Percent Growth,[23]; Log10 Concentration −8.0,98%
same,GI50,[23]; NCI five dose,5.14 µM
same,TGI,[23]; NCI five dose,2.51E−5
same,CC50,[24],77.2 µM
same,CC50,[25],42.9 µM
same,CC50,[26],75.5 µM
same,CC50,[27],> 100 µM
same,CC50,[28],> 100 µM
same,CC50,[29],57.5 µM
same,CC50,[30],66.4 µM
same,CC50,[31],> 100 µM
same,CC50,[32],> 100 µM
same,CC50,[33],94.3 µM
same,CC50,[34],42.3 µM
same,CC50,[35],77.1 µM
same,CC50,[36],> 100 µM
same,CC50,[37],73.8 µM
same,CC50,[38],88.3 µM
same,CC50,[39],> 100 µM
same,CC50,[40],57.1 µM
same,CC50,[41],> 100 µM
same,CC50,[42],9.13 µM
same,CC50,[43],99.1 µM
same,CC50,[44],> 100 µM
same,CC50,[45],79.4 µM
C=C1C(=O)O[C@H]2[C@H]1CC/C(COC(=O)NC)=C\CC[C@@]1(C)O[C@@H]21 [JVM 2-57],Percent Growth,[1]; Log10 Concentration −4.0,−76%
same,Percent Growth,[1]; Log10 Concentration −5.0,25%
same,Percent Growth,[1]; Log10 Concentration −6.0,94%
same,Percent Growth,[1]; Log10 Concentration −7.0,95%
same,Percent Growth,[1]; Log10 Concentration −8.0,95%
same,GI50,[1]; NCI five dose,4.38 µM
same,TGI,[1]; NCI five dose,1.77E−5
same,CC50,[2],44.1 µM
same,CC50,[3],53 µM
same,CC50,[4],57.7 µM
same,CC50,[5],> 100 µM
same,CC50,[6],44.3 µM
same,CC50,[7],> 100 µM
same,CC50,[8],> 100 µM
same,CC50,[9],> 100 µM
same,CC50,[10],57 µM
same,CC50,[11],78 µM
same,CC50,[12],69 µM
same,CC50,[13],47.7 µM
same,CC50,[14],44.7 µM
same,CC50,[15],> 100 µM
same,CC50,[16],44.1 µM
same,CC50,[17],76.3 µM
same,CC50,[18],78.1 µM
same,CC50,[19],40.2 µM
same,CC50,[20],71.1 µM
same,CC50,[21],50.5 µM
same,CC50,[22],39.3 µM
same,Percent Growth,[23]; Log10 Concentration −4.0,−53%
same,Percent Growth,[23]; Log10 Concentration −5.0,7%
same,Percent Growth,[23]; Log10 Concentration −6.0,87%
same,Percent Growth,[23]; Log10 Concentration −7.0,94%
same,Percent Growth,[23]; Log10 Concentration −8.0,101%
same,GI50,[23]; NCI five dose,2.89 µM
same,TGI,[23]; NCI five dose,1.30E−5
same,CC50,[24],61.6 µM
same,CC50,[25],33.1 µM
same,CC50,[26],56.2 µM
same,CC50,[27],96.1 µM
same,CC50,[28],47.4 µM
same,CC50,[29],41.8 µM
same,CC50,[30],49.6 µM
same,CC50,[31],77 µM
same,CC50,[32],> 100 µM
same,CC50,[33],66.1 µM
same,CC50,[34],29.7 µM
same,CC50,[35],36.9 µM
same,CC50,[36],> 100 µM
same,CC50,[37],36.6 µM
same,CC50,[38],66.7 µM
same,CC50,[39],> 100 µM
same,CC50,[40],43.2 µM
same,CC50,[41],57.2 µM
same,CC50,[42],6.85 µM
same,CC50,[43],68.6 µM
same,CC50,[44],> 100 µM
same,CC50,[45],52 µM
C=C1C(=O)O[C@H]2[C@H]1CC/C(COC(=O)N1CCC(F)(F)CC1)=C\CC[C@@]1(C)O[C@@H]21 [JVM 2-66],GI50,[1],1.9 µM
same,TGI,[1],4.82E−6
same,Percent Growth,[1]; Log10 Concentration −4.0,−72%
same,Percent Growth,[1]; Log10 Concentration −5.0,−39%
same,Percent Growth,[1]; Log10 Concentration −6.0,84%
same,Percent Growth,[1]; Log10 Concentration −7.0,91%
same,Percent Growth,[1]; Log10 Concentration −8.0,99%
same,CC50,[2],36.5 µM
same,CC50,[3],52.1 µM
same,CC50,[4],66.2 µM
same,CC50,[5],51.5 µM
same,CC50,[6],48.1 µM
same,CC50,[7],> 100 µM
same,CC50,[8],62.7 µM
same,CC50,[9],> 100 µM
same,CC50,[10],40.3 µM
same,CC50,[11],72.6 µM
same,CC50,[12],37 µM
same,CC50,[13],26.4 µM
same,CC50,[14],17.9 µM
same,CC50,[15],63.8 µM
same,CC50,[16],5.33 µM
same,CC50,[17],67.6 µM
same,CC50,[18],37.7 µM
same,CC50,[19],> 100 µM
same,CC50,[20],53.8 µM
same,CC50,[21],23.2 µM
same,CC50,[22],28.9 µM
same,GI50,[23],1.98 µM
same,TGI,[23],5.83E−6
same,Percent Growth,[23]; Log10 Concentration −4.0,−46%
same,Percent Growth,[23]; Log10 Concentration −5.0,−25%
same,Percent Growth,[23]; Log10 Concentration −6.0,81%
same,Percent Growth,[23]; Log10 Concentration −7.0,97%
same,Percent Growth,[23]; Log10 Concentration −8.0,98%
same,CC50,[24],57.9 µM
same,CC50,[25],29.5 µM
same,CC50,[26],30.7 µM
same,CC50,[27],10.9 µM
same,CC50,[28],28.9 µM
same,CC50,[29],10 µM
same,CC50,[30],48.6 µM
same,CC50,[31],59.7 µM
same,CC50,[32],47.2 µM
same,CC50,[33],48.2 µM
same,CC50,[34],11.1 µM
same,CC50,[35],22.2 µM
same,CC50,[36],> 100 µM
same,CC50,[37],23.8 µM
same,CC50,[38],41.7 µM
same,CC50,[39],54.6 µM
same,CC50,[40],22.5 µM
same,CC50,[41],38.5 µM
same,CC50,[42],6.08 µM
same,CC50,[43],56.5 µM
same,CC50,[44],69.5 µM
same,CC50,[45],33 µM
C=C1C(=O)O[C@H]2[C@H]1CC/C(COC(=O)CCC(=O)N1CCC(C)CC1)=C\CC[C@@]1(C)O[C@@H]21 [JVM 2-70],Percent Growth,[1]; Log10 Concentration −4.0,−67%
same,Percent Growth,[1]; Log10 Concentration −5.0,−5%
same,Percent Growth,[1]; Log10 Concentration −6.0,99%
same,Percent Growth,[1]; Log10 Concentration −7.0,108%
same,Percent Growth,[1]; Log10 Concentration −8.0,106%
same,GI50,[1]; NCI five dose,2.95 µM
same,TGI,[1]; NCI five dose,8.96E−5
same,CC50,[2],47 µM
same,CC50,[3],59.7 µM
same,CC50,[4],75.9 µM
same,CC50,[5],71 µM
same,CC50,[6],49.9 µM
same,CC50,[7],> 100 µM
same,CC50,[8],63.4 µM
same,CC50,[9],> 100 µM
same,CC50,[10],44.5 µM
same,CC50,[11],89.4 µM
same,CC50,[12],61 µM
same,CC50,[13],64.1 µM
same,CC50,[14],42.6 µM
same,CC50,[15],> 100 µM
same,CC50,[16],9.41 µM
same,CC50,[17],58.6 µM
same,CC50,[18],51.9 µM
same,CC50,[19],> 100 µM
same,CC50,[20],69.1 µM
same,CC50,[21],49.5 µM
same,CC50,[22],45.9 µM
same,Percent Growth,[23]; Log10 Concentration −4.0,−34%
same,Percent Growth,[23]; Log10 Concentration −5.0,28%
same,Percent Growth,[23]; Log10 Concentration −6.0,96%
same,Percent Growth,[23]; Log10 Concentration −7.0,98%
same,Percent Growth,[23]; Log10 Concentration −8.0,101%
same,GI50,[23]; NCI five dose,4.74 µM
same,TGI,[23]; NCI five dose,2.82E−5
same,CC50,[24],61 µM
same,CC50,[25],29.3 µM
same,CC50,[26],52.8 µM
same,CC50,[27],76.1 µM
same,CC50,[28],45.2 µM
same,CC50,[29],32.6 µM
same,CC50,[30],58 µM
same,CC50,[31],94 µM
same,CC50,[32],57 µM
same,CC50,[33],64.3 µM
same,CC50,[34],36.4 µM
same,CC50,[35],46.9 µM
same,CC50,[36],> 100 µM
same,CC50,[37],36.2 µM
same,CC50,[38],49.3 µM
same,CC50,[39],65.1 µM
same,CC50,[40],41 µM
same,CC50,[41],42.9 µM
same,CC50,[42],5.99 µM
same,CC50,[43],69.1 µM
same,CC50,[44],96 µM
same,CC50,[45],44.5 µM
